# Measurements reported in US10330673B2, “Fluorescent chemical sensor for biological amines” (The Curators of the University of Missouri, priority 2013, dated 2019).
# How the values were obtained:
# [1] = tested on: NE-enriched chromaffin cells; assay: Fixed-cell staining with I-2 and anti-PNMT antibody, NE-enriched cells; format: cell-based, bovine; details: 1 μM, fixed in 4% paraformaldehyde, visualized at 525 nm
# Excerpt: To further validate the selectivity of the inventive sensor, the inventive detection method is validated with an established procedure in which phenylethanolamine N-methyltransferase (PNMT) is stained with an antibody and visualized with a Cy3-conjugated secondary antibody. It has been shown that epinephrine-enriched cell populations gave the highest level of PNMT staining, while norepinephrine-enriched populations gave lower staining (ca. 20% of that with epinephrine-enriched cells). For this experiment, three populations of chromaffin cells (norepinephrine-enriched, epin ephrine-enriched, and mixed) were stained with Compound I-2 and fixed in 4% paraformaldehyde. The fixed cells were stained with the anti-PNMT and secondary antibodies.
# Chromaffin cells were isolated from bovine adrenal glands as previously described. […]
# NE-enriched cells, EP-enriched cells and mixed cells stained with I-2 (1 μM) and plated on 0.0025% Poly (1-lysine) coated cover slips, after three washed with pre-warmed phosphate-buffered saline (pH=7.4, PBS), were fixed in 4% paraformaldehyde (Sigma, St. Louis, Mo., USA) in PBS for 60 min at room temperature (RT), followed by 6 min in methanol chilled to −20° C. […] After three washed in PBS, bound antibody was detected using Cy™3-conjugated AffiniPure Donkey Anti-Rabbit (1:150 dilution, Jackson ImmunoResearch Laboratories, Inc, Nest Grove, Pa., 19390). […]
# [2] = Fluorescence quantum yield, unbound fluorophore; format: physicochemical; details: no amine guest (sensor alone)
# Method: Steady-state fluorescence spectroscopic studies were performed using a Horiba Scientific Fluorolog-3 Model FL3C-111 spectrofluorometer and data was collected and analyzed using HJY FluorEssence™ 3.5.1.20 software package. UV-visible spectra were obtained on a Varian Cary 1E UV-visible spectrophotometer. A stock solution of each benzene- or thiophene-based coumarin-3-aldehyde derivative (1 μM) in buffer (25 mM HEPES, 50 mM Na2S2O3, pH=5.0) was prepared. Each solution contained 1% (v/v) DMSO as a cosolvent except as noted. The slit width was 2 nm for both excitation and emission. The bound benzene- and thiophene-coumarin-3-aldehyde derivatives contained 500 mM glutamate (pH=5.0).
# To determine the relative quantum yield of fluorescence (Φfl) for the benzene-based derivatives, a 1.0 μM solution of fluorescein (absolute Φfl=0.85) in 0.1 N NaOH (pH 13) was used as a fluorescence standard. The unbound derivatives were excited at 473 nm and the bound derivatives were excited at 488 nm. To determine the relative quantum yield of fluorescence (Φfl) for the thiophene-based derivatives, a 1.0 μM solution of rhodamine B (absolute Φfl=0.31) in water (pH 7) was used as a fluorescence standard. The unbound derivatives were excited at 473 nm and the bound derivatives were excited at 515 nm. Quantum yields were obtained in triplicate and calculated as per the following equation: […]
# [3] = tested on: norepinephrine-enriched chromaffin cells; assay: Live-cell confocal imaging with Compound I-2, norepinephrine-enriched cells; format: cell-based, bovine; details: 0.1 μM
# Method: Chromaffin cells were separated into norepinephrine-enriched and epinephrine-enriched fractions by centrifugation on a Percoll gradient. Both populations were independently incubated with a 0.1 μM solution of Compound I-2 at 37° C. for 30 minutes and then washed to remove excess sensor and plated.
# Chromaffin cells were isolated from bovine adrenal glands as previously described. Following centrifugation at 18° C. at 13,000 rpm for 45 minutes in the Percoll gradient, chromaffin cells separate into fractions enriched with either epinephrine-enriched cells (denser band) and norepinephrine-enriched cells (lighter band). Moro, M. A.; Lépez, M. G.; Gandía, L.; Michelena, P.; Garcia, G. Separation and culture of living adrenaline- and noradrenaline-containing cells from bovine adrenal medullae. Anal. Biochem. 1990, 185, 243-248. Over 90% of the catecholamine content found in the cells in the denser fraction are epinephrine, whereas approximately 67% of the catecholamine content in the lighter fraction are norepinephrine. Liu, X.; Barizuddin, S.; Shin, W.; Mathai, C. J.; Gangopadhyay, S.; Gillis, K. D. Microwell device for targeting single cells to electrochemical microelectrodes for high-throughput amperometric detection of quantal exocytosis. Anal. Chem. 2011, 83, 2445-2451. The two cell fractions were collected from the Percoll gradient with careful pipetting and separately cultured. […]
# [4] = Fluorescence titration of sensor with lysine; format: binding; details: amine guest lysine
compound,measurement,setting,value
"CCN(CC)c1ccc2c(-c3ccc(OC)cc3)c(C=O)c(=O)oc2c1 [Compound I-2, 7-diethylamino-3-formyl-4-(4′-methoxyphenyl)coumarin]",staining of fixed cells by sensor,[1],stain brightly
same,Quantum Yield (Φ),[2],0.0029
same,"cell fluorescence, confocal microscopy","[3]; 37° C., 30 minutes, 488 nm excitation (bound sensor)","strong, punctate fluorescence"
same,"cell fluorescence, confocal microscopy",[3]; excited at 440 nm (unbound sensor),No significant fluorescence
same,Ka,"[4]; fluorescence spectroscopy, λex = 488 nm, λem = 521 nm",11 M⁻¹
same,Isat/Io (λex = 488 nm),[4]; intensity at saturation from fit to binding isotherm,15.1
